The values below come from patent US20110268699A1, “METHODS FOR TREATING MULTIPLE SCLEROSIS USING TETRACYCLIC PYRAZINOINDOLES” (BIOVISTA, INC., priority 2008, published 2011).

Where two headings read alike, the source gives them in different places.

For series [1] the following is noted: steady-state, trough sample (pre-dose), on average; cited from earlier work.
The test system of series [2] is MOG-induced EAE in female C57BL/6J mice. It counts as in vivo, mouse.
Procedure: Acute EAE Murine Model. […] The MOG murine model consists of a sensitization period, induced by the single subcutaneous (SC) injection of MOG emulsified in Complete Freund's Adjuvant (CFA) on study days 0 and 6, followed by IP supplemental immunostimulation with Pertussis Toxin (PT) carried out once at the time of EAE induction and once again 48 hours later.
Briefly, the study is performed in female C57BL/6J mice (Harlan Laboratories Israel, Ltd.) as young adults, 8-9 weeks of age at study initiation. animals are acclimatized to laboratory conditions at least 5 days. During acclimation and throughout the entire study duration, animals are housed in groups of 10 mice maximum in polypropylene cages, which are fitted with solid bottoms and filled with wood shavings as bedding material. Animals are provided ad libitum a commercial rodent diet and free access to drinking water, supplied to each cage via polyethylene bottles with stainless steel sipper tubes. Water is monitored periodically. Automatically controlled environmental conditions are set to maintain temperature at 20-24° C. with a relative humidity (RH) of 30-70%, a 12:12 hour light: dark cycle and 15-30 air changes/hr in the study room. Temperature and RH are monitored daily. The light cycle is monitored by the control clock. Weight variation of animals at the time of treatment initiation should not exceed ±20% of the mean weight. At the end of the study, surviving animals are euthanized by CO2 asphyxiation.
Antigen. […] This concentration is appropriate for the selected dose and dose volume of 200 μg MOG in 100 μL PBS.
MOG/CFA Emulsion. Prior to each inoculation carried out on study days 0 and 6, 100 μl of MOG solution (200 μg) is emulsified with 100 μl of CFA suspension (300 μg heat killed Mycobacterium Tuberculosis H37 Ra). […]
Initially, all animals are examined for signs of any neurological responses and symptoms prior to EAE induction (study day 0) and are examined on a daily basis throughout the 35-day observation period. EAE reactions are scored and recorded according to a 0-15 scale Clinical signs Scoring Methods. […]
The test system is the same in series [3]. In words: Histological analysis of spinal cord (H&E) of EAE mice: severity score and white matter damage. Type of series: in vivo, mouse. An excerpt: EXAMPLE. Histological Analysis of mice treated with pirlindole (BVA-201). Briefly, all samples are longitudinal sections of the vertebral column and spinal cord stained with hematoxylin and eosin (H&E). Sample A is the cranial part of the vertebral column and sample B is the caudal part. The modifiers F-focal, MF-multifocal, and D-diffuse are used to describe the distribution of inflammatory cellular infiltration. Diffuse is used when the lesion is continuous (at least on one side) and affects the entire SC. In some cases the lesion affects the entire SC (100%) but its distribution is multifocal because it is not contiguous i.e. there are small unaffected segments on one side, which are affected on the contralateral side. Histology analysis refers to 2 parameters: (a) Severity Score which is referring mainly but not limited to infiltration on inflammatory cells; and (b) White Matter Damage (WMD). Codes: Dist—distribution; GM—gray matter; IC—inflammatory cells; ND—not done; SC—spinal cord; Sev—severity; WM—white matter; WMD—white matter damage; WNL—within normal limits. Severity scores 0—WNL, 1—minimal, 2—mild, 3—moderate, 4—severe. Half grades are also used. Severity refers to the amount of inflammatory infiltration and WMD. If there is a discrepancy in the grade of these 2 changes, then this is noted. The extent of WMD is indicated in percentage referring to the amount of affected spinal cord tissue in the sample. In many cases the damage affected one side (dorsal or ventral) of the SC only. In some cases, when the plane of section is more lateral the WMD affects both sides. The available SC sample is considered 100%. Thus, if in a 5 cm long SC, there are changes in a 0.5 cm long segment, then this was noted as 10% irrespective of whether the damage affected one side or both. Although not reflected in the percentage, the extent of the lesion is taken into consideration in evaluation of the severity. WMD describes a set of changes including vacuolation, gliosis, and presence of myelin debris. […]

Take `Clc1ccc2c(c1)N=C(N1CCNCC1)c1ccccc1N2` [Norclozapine]: the “Metabolite concentration as share of the clozapine concentration in plasma” value in series [1] was about 70%.
Regarding `Cc1ccc2c(c1)c1c3n2CCNC3CCC1` (stereo not shown) [Pirlindole, 2,3,3a,4,5,6-hexahydro-8-methyl-1H-pyrazino[3,2,1-j,k]carbazole], the “Activity on EAE clinical score compared to the vehicle-only treatment group (A)” value in series [2] (group C, 1.0 mg/kg IP once daily, at the end of the study) is listed as “not statistically significant”; in series [2] (group C, 1.0 mg/kg IP once daily, intermediate time points on days 30, 31, and 32, p<0.05) it was “statistically significant”; in series [2] (group E, 10 mg/kg IP once daily from day 0, p<0.01, starting at day 15 and continuing throughout the study (day 23, p<0.05), FIG. 1), “statistically significant”. For the same compound, the “Demyelination / myelin repair compared to the vehicle-only treatment group” value in series [3] (BVA-201 treatment group, general statement) is reported as “one or more of (a) less demyelination, (b) improved myelin repair, and/or (c) remyelination”. Further, in series [3] (group F, 30 mg/kg IP, FIG. 5), the “Histology mean % of white matter damage (WMD)” value is on record as “significant protective effect”. Also, the “Histology mean group severity score (inflammatory infiltration) versus vehicle” value in series [3] (groups C (1 mg/kg) and F (30 mg/kg) IP, FIG. 3) is “No difference”.
